Measured values published in patent US10039747B2, “Tetrahydrocyclopentapyrrole derivatives and a method for preparing the same” (Daewoong Pharmaceutical Co., Ltd., priority 2013, dated 2018).
Where a name gives a salt, the structure may show the parent alone.

Each molecule was assayed against T1, H+/K+-ATPase (Sus scrofa, UniProt P19156) (assay: Inhibition of proton pump (H+/K+-ATPase) activity in hog gastric vesicles). Conditions: K+ specific H+/K+-ATPase activity, pH 7.4, 37° C. for 40 minutes, malachite green.
T1 construct: reaction buffer solution (60 mmol/l Tris-HCl buffer solution, pH 7.4) containing hog gastric vesicle; from tissue; host or cells: hog stomach (gastric vesicles, by centrifugation after Rabon et al. 1988)
T1 sequence (P19156 2-1034 limits assumed): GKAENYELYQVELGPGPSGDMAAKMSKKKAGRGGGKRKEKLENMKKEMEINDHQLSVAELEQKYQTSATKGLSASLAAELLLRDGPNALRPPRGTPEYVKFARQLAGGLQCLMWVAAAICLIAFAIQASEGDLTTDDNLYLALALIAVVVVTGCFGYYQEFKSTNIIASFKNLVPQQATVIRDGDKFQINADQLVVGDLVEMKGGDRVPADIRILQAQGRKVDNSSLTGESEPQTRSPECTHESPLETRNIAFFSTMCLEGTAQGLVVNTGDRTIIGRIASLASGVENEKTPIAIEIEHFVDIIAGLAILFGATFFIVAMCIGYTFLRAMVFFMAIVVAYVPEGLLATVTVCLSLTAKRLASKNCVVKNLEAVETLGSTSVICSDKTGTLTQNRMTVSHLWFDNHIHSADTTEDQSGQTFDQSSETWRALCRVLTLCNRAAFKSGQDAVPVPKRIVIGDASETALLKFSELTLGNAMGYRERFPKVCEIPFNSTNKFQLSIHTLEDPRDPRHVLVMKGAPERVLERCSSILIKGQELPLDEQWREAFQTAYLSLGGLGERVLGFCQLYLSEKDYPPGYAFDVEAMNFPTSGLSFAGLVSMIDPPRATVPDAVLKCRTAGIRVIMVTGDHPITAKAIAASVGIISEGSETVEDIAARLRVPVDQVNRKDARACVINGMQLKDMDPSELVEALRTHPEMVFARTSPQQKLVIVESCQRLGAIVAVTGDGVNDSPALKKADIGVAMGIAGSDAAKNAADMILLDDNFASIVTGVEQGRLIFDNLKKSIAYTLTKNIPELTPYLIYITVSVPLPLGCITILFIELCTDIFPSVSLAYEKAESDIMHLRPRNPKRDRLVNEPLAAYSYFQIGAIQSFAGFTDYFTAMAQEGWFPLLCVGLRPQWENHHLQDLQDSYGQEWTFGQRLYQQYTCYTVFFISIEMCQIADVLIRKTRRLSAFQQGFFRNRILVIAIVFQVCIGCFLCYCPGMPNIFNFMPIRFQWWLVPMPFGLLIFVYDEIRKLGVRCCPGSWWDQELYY
T1 sequence (P18434 whole entry partner): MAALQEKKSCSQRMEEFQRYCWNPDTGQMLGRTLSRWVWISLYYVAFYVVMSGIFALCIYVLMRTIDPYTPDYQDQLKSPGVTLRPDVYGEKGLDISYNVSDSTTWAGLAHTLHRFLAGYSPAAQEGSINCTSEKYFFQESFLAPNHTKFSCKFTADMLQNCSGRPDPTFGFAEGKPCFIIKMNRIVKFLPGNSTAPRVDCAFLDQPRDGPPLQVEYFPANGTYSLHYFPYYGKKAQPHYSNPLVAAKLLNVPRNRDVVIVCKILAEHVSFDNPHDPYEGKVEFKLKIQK
Assay type: biochemical
How it was run: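 Hog gastric vesicles in 60 mmol/l Tris-HCl pH 7.4 with compound, started with ATP, 40 min at 37° C. Pi read by malachite green at 570 nm; K+-specific activity taken as difference between +K+ and −K+ activity. IC50 from % inhibition by 4-parameter logistic fit.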

| IC50 [µM] | Compound |
| --- | --- |
| 40 | Cc1oc(=O)oc1COC(=O)N(C)C1CCc2c1cn(S(=O)(=O)c1cccc(Cl)c1)c2-c1ccccc1F (stereo not shown) [Example 118, (5-methyl-2-oxo-1,3-dioxol-4-yl)methyl (2-((3-chlorophenyl)sulfonyl)-1-(2-fluorophenyl)-2,4,5,6-tetrahydrocyclopenta[c]pyrrol-4-yl)(methyl)carbamate] |
| 2.16 | Cc1oc(=O)oc1CN(C)C1CCc2c1cn(S(=O)(=O)c1cccc(Cl)c1)c2-c1ccccc1F (stereo not shown) [Example 119, 4-(((2-((3-chlorophenyl)sulfonyl)-1-(2-fluorophenyl)-2,4,5,6-tetrahydrocyclopenta[c]pyrrol-4-yl)(methyl)amino)methyl)-5-methyl-1,3-dioxol-2-one] |
| 1.5 | CNC1CCCc2c1cn(S(=O)(=O)c1cccc(F)c1)c2-c1ccccc1F (stereo not shown) [Example 120, 1-(2-fluorophenyl)-2-((3-fluorophenyl)sulfonyl)-N-methyl-4,5,6,7-tetrahydro-2H-isoindole-4-amine] |
| 1.5 | CNC1CCCc2c1cn(S(=O)(=O)c1cccc(C)c1)c2-c1ccccc1F (stereo not shown) [Example 121, 1-(2-fluorophenyl)-N-methyl-2-(m-tolylsulfonyl)-4,5,6,7-tetrahydro-2H-isoindole-4-amine] |
| 1.5 | CNC1CCCc2c1cn(S(=O)(=O)c1cccc(OC)c1)c2-c1ccccc1F (stereo not shown) [Example 122, 1-(2-fluorophenyl)-2-((3-methoxyphenyl)sulfonyl)-N-methyl-4,5,6,7-tetrahydro-2H-isoindole-4-amine] |
| 2 | CNC1CCCc2c1cn(S(=O)(=O)c1cccc(OC(F)F)c1)c2-c1ccccc1F (stereo not shown) [Example 123, 2-((3-(difluoromethoxy)phenyl)sulfonyl)-1-(2-fluorophenyl)-N-methyl-4,5,6,7-tetrahydro-2H-isoindole-4-amine] |
| 4.18 | CNC1CCCc2c1cn(S(=O)(=O)c1cccc(C(F)(F)F)c1)c2-c1ccccc1F (stereo not shown) [Example 124, 1-(2-fluorophenyl)-N-methyl-2-((3-(trifluoromethyl)phenyl)sulfonyl)-4,5,6,7-tetrahydro-2H-isoindole-4-amine] |
| 4.42 | CNC1CCCc2c1cn(S(=O)(=O)c1cccc(OC(F)(F)F)c1)c2-c1ccccc1F (stereo not shown) [Example 125, 1-(2-fluorophenyl)-N-methyl-2-((3-(trifluoromethoxy)phenyl)sulfonyl)-4,5,6,7-tetrahydro-2H-isoindole-4-amine] |
| 4 | CNC1CCCc2c1cn(S(=O)(=O)c1cc(Cl)ccc1F)c2-c1ccccc1F (stereo not shown) [Example 126, 2-((5-chloro-2-fluorophenyl)sulfonyl)-1-(2-fluorophenyl)-N-methyl-4,5,6,7-tetrahydro-2H-isoindole-4-amine] |
| 4.53 | CNC1CCCc2c1cn(S(=O)(=O)c1cccc(Cl)c1)c2-c1ccc(-c2ccccc2)cc1 (stereo not shown) [Example 127, 1-([1,1′-biphenyl]-4-yl)-2-((3-chlorophenyl)sulfonyl)-N-methyl-4,5,6,7-tetrahydro-2H-isoindole-4-amine] |
| 50 | CNC1CCCc2c1cn(S(=O)(=O)c1cccc(Cl)c1)c2-c1ccncc1 (stereo not shown) [Example 128, 2-((3-chlorophenyl)sulfonyl)-N-methyl-1-(pyridin-4-yl)-4,5,6,7-tetrahydro-2H-isoindole-4-amine] |
| 40 | CNC1CCCc2c1cn(S(=O)(=O)c1cccc(Cl)c1)c2-c1cncnc1 (stereo not shown) [Example 129, 2-((3-chlorophenyl)sulfonyl)-N-methyl-1-(pyrimidin-5-yl)-4,5,6,7-tetrahydro-2H-isoindole-4-amine] |
| 1.5 | CNC1CCCc2c1cn(S(=O)(=O)c1cccc(N(C)C)c1)c2-c1ccccc1F (stereo not shown) [Example 130, 2-((3-(dimethylamino)phenyl)sulfonyl)-1-(2-fluorophenyl)-N-methyl-4,5,6,7-tetrahydro-2H-isoindole-4-amine] |

The next lines start with the molecule.

| Compound | IC50 [µM] |
| --- | --- |
| CNC1CCc2c1cn(S(=O)(=O)c1cncc(Cl)c1)c2-c1ccccc1F (stereo not shown) [Example 95, 2-((5-chloropyridin-3-yl)sulfonyl)-1-(2-fluorophenyl)-N-methyl-2,4,5,6-tetrahydrocyclopenta[c]pyrrol-4-amine] | 1.72 |
| CNC1CCc2c1cn(S(=O)(=O)c1ccc(Oc3ccccc3)nc1)c2-c1ccccc1F (stereo not shown) [Example 96, 1-(2-fluorophenyl)-N-methyl-2-((6-phenoxypyridin-3-yl)sulfonyl)-2,4,5,6-tetrahydrocyclopenta[c]pyrrol-4-amine] | 0.8 |
| CNC1CCc2c1cn(S(=O)(=O)c1cnc3onc(C)c3c1)c2-c1ccccc1F (stereo not shown) [Example 97, 1-(2-fluorophenyl)-N-methyl-2-((3-methylisoxazolo[5,4-b]pyridin-5-yl)sulfonyl-)2,4,5,6-tetrahydrocyclopenta[c]pyrrol-4-amine] | 2.82 |
| CNC1CCc2c1cn(S(=O)(=O)c1ccc(OC)nc1Cl)c2-c1ccccc1F (stereo not shown) [Example 98, 2-((2-chloro-6-methoxypyridin-3-yl)sulfonyl)-1-(2-fluorophenyl)-N-methyl-2,4,5,6-tetrahydrocyclopenta[c]pyrrol-4-amine] | 3.62 |
| CNC1CCc2c1cn(S(=O)(=O)c1ccc(C)nc1Cl)c2-c1ccccc1F (stereo not shown) [Example 99, 2-((2-chloro-6-methylpyridin-3-yl)sulfonyl)-1-(2-fluorophenyl)-N-methyl-2,4,5,6-tetrahydrocyclopenta[c]pyrrol-4-amine] | 6.78 |
| CNC1CCc2c1cn(S(=O)(=O)c1cc(C)cnc1Cl)c2-c1ccccc1F (stereo not shown) [Example 100, 2-((2-chloro-5-methylpyridin-3-yl)sulfonyl)-1-(2-fluorophenyl)-N-methyl-2,4,5,6-tetrahydrocyclopenta[c]pyrrol-4-amine] | 7.24 |
| CNC1CCc2c1cn(S(=O)(=O)c1nccn1C)c2-c1ccccc1F (stereo not shown) [Example 101, 1-(2-fluorophenyl)-N-methyl-2-((1-methyl-1H-imidazol-2-yl)sulfonyl)-2,4,5,6-tetrahydrocyclopenta[c]pyrrol-4-amine] | 18.7 |
| CNC1CCc2c1cn(S(=O)(=O)c1cnc3c(c1)c(C)nn3C)c2-c1ccccc1F (stereo not shown) [Example 102, 2-((1,3-dimethyl-1H-pyrazolo[3,4-b]pyridin-5-yl)sulfonyl)-1-(2-fluorophenyl)-N-methyl-2,4,5,6-tetrahydrocyclopenta[c]pyrrol-4-amine] | 10 |
| CCNC1CCc2c1cn(S(=O)(=O)c1cccnc1)c2-c1ccccc1F (stereo not shown) [Example 103, N-ethyl-1-(2-fluorophenyl)-2-(pyridin-3-ylsulfonyl)-2,4,5,6-tetrahydrocyclopenta[c]pyrrol-4-amine] | 1.79 |
| CC(C)NC1CCc2c1cn(S(=O)(=O)c1cccnc1)c2-c1ccccc1F (stereo not shown) [Example 104, 1-(2-fluorophenyl)-N-isopropyl-2-(pyridin-3-ylsulfonyl)-2,4,5,6-tetrahydrocyclopenta[c]pyrrol-4-amine] | 50 |
| CNC1CC(C)(C)c2c1cn(S(=O)(=O)c1cccnc1)c2-c1ccccc1F (stereo not shown) [Example 105, 1-(2-fluorophenyl)-N,6,6-trimethyl-2-(pyridin-3-ylsulfonyl)-2,4,5,6-tetrahydrocyclopenta[c]pyrrol-4-amine] | 8.5 |
| CNC1CC(C)(C)c2c1cn(S(=O)(=O)c1cccc(Cl)c1)c2-c1ccccc1F (stereo not shown) [Example 106, 2-((3-chlorophenyl)sulfonyl)-1-(2-fluorophenyl)-N,6,6-trimethyl-2,4,5,6-tetrahydrocyclopenta[c]pyrrol-4-amine] | 3.3 |
| CNC1CCc2c1cn(Cc1cccc(Cl)c1)c2-c1ccccc1F (stereo not shown) [Example 107, 2-(3-chlorobenzyl)-1-(2-fluorophenyl)-N-methyl-2,4,5,6-tetrahydrocyclopenta[c]pyrrol-4-amine] | 2.86 |
| CNC1CCc2c1cn(Cc1cccc(F)c1)c2-c1ccccc1F (stereo not shown) [Example 108, 2-(3-fluorobenzyl)-1-(2-fluorophenyl)-N-methyl-2,4,5,6-tetrahydrocyclopenta[c]pyrrol-4-amine] | 5.65 |
| CNC1CCc2c1cn(Cc1ccccc1)c2-c1ccccc1F (stereo not shown) [Example 109, 2-benzyl-1-(2-fluorophenyl)-N-methyl-2,4,5,6-tetrahydrocyclopenta[c]pyrrol-4-amine] | 6.24 |
| CNC1CCc2c1cn(Cc1cccc(C)c1)c2-c1ccccc1F (stereo not shown) [Example 110, 1-(2-fluorophenyl)-N-methyl-2-(3-methylbenzyl)-2,4,5,6-tetrahydrocyclopenta[c]pyrrol-4-amine] | 2.89 |
| CNC1CCc2c1cn(Cc1cccc(OC)c1)c2-c1ccccc1F (stereo not shown) [Example 111, 1-(2-fluorophenyl)-2-(3-methoxybenzyl)-N-methyl-2,4,5,6-tetrahydrocyclopenta[c]pyrrol-4-amine] | 2.57 |
| CNC1CCc2c1cn(C(=O)c1cccc(Cl)c1)c2-c1ccc(F)cc1F (stereo not shown) [Example 114, (3-chlorophenyl)(1-(2,4-difluorophenyl)-4-(methylamino)-5,6-dihydrocyclopenta[c]pyrrol-2(4H)-yl)methanone] | 30.1 |
| CNC1NCc2c1cn(S(=O)(=O)c1cccc(Cl)c1)c2-c1ccccc1F (stereo not shown) [Example 115, 5-((3-chlorophenyl)sulfonyl)-4-(2-fluorophenyl)-N-methyl-1,2,3,5-tetrahydropyrrolo[3,4-c]pyrrol-1-amine hydrochloride] | 40 |
| Cc1oc(=O)oc1COC(=O)N(C)C1CCc2c1cn(S(=O)(=O)c1cccc(F)c1)c2-c1ccc(F)cc1F (stereo not shown) [Example 116, (5-methyl-2-oxo-1,3-dioxol-4-yl)methyl (1-(2,4-difluorophenyl)-2-((3-fluorophenyl)sulfonyl)-2,4,5,6-tetrahydrocyclopenta[c]pyrrol-4-yl)(methyl)carbamate] | 26.2 |
| Cc1oc(=O)oc1CN(C)C1CCc2c1cn(S(=O)(=O)c1cccc(F)c1)c2-c1ccc(F)cc1F (stereo not shown) [Example 117, 4-(((1-(2,4-difluorophenyl)-2-((3-fluorophenyl)sulfonyl)-2,4,5,6-tetrahydrocyclopenta[c]pyrrol-4-yl)(methyl)amino)methyl)-5-methyl-1,3-dioxol-2-one] | 2.44 |
